Source: patent US20050025727A1, “Natural sunlight photostable composition” (priority 2003, published 2005)

Assay: Photostability in natural sunlight: residual sunscreen active by HPLC, 2 mg/cm^2 film on microscope slides
Type: physicochemical
Details: for Residual Octisalate, Residual %: natural sunlight as in Example 1, formula not named (context: Formula 5)
Experimental: As described above, a sunscreen composition of SPF X is considered to be “photostable” when at least 70%, preferably at least 75%, more preferably at least 80% of each sunscreen active in the composition remains after exposure of the composition to Y SEDS of natural sunlight, where Y is about ½ X. “Photostability” is assessed by (i) assaying the pre-UVR exposure concentration of each sunscreen active present in the sunscreen composition by high-performance liquid chromatography (“HPLC”); (ii) applying a sample of the sunscreen composition at a concentration of 2 mg/cm^2 (a standard concentration used in SPF testing) to a non-coated microscope slide or similar non-reactive surface (e.g., glass or quartz plate); (iii) irradiating the sample in natural sunlight according to a dosing regimen as illustrated in Table 1; (iv) assaying the concentration of each sunscreen active post-UVR exposure. More specifically, after the desired UVR exposure, each slide is removed from sunlight and placed in a sealed Blue Max™ polypropylene conical tube (Becton Dickinson) or similar container, and stored in an area to prevent further exposure to natural sunlight. When an irradiation series is completed, the residual content of each sunscreen active is determined via HPLC, such as the Perkin Elmer Model 200, equipped with a 785 UVN detector, and a C18 column. A detector wavelength of 310 nm and an eluent solution of […] may be used. The sunscreen composition is extracted from the slide with isopropanol or other suitable solvent and sonicated for a minimum of 10 minutes to completely solubilize the sunscreen actives. The solution is then filtered with a 0.45 um GHP13 mm syringe filter. The above analytical procedure may be modified in a manner that would be obvious to the person of ordinary skill in the art. To compare the photostability of Formulas 1 and 2, a uniform 2 mg/cm^2 film of sunscreen product was placed on multiple microscope slides. The slides were exposed to direct sunlight for time intervals corresponding to 1, 2, 4, 8, and 16 SEDs as measured by a Solar Light PMA 2100 detector. (Unless otherwise indicated, all sunlight exposures were in Ormond Beach, Fla.). Slides were removed from the sun after the desired exposure and stored in Blue Max™ polypropylene conical tubes. Upon completion of the test series, samples were dissolved in a suitable solvent, sonicated and then assayed via HPLC. Unless otherwise indicated, all assays were performed by HPLC with oxybenzone, if present, as the internal standard.

Photostability of octisalate (exposed to natural sunlight as in Example 1): photolabile | Residual Octisalate, Residual % (1 SED): 96% | Residual Octisalate, Residual % (2 SEDs): 100% | Residual Octisalate, Residual % (4 SEDs): 92% | Residual Octisalate, Residual % (8 SEDs): 80% | Residual Octisalate, Residual % (16 SEDs): 55%
Compound: CCCCC(CC)COC(=O)c1ccccc1O (stereo not drawn) [Octisalate]
